Experiments:
Rattus norvegicus [1] = assay: Evaluated for 5-HTP increase in hemisphere region of nonpretreated rat at 100 umol / kg administered subcutaneously; format: functional
Rattus norvegicus [2] = assay: Evaluated for DOPA accumulation in striatum of nonpretreated rat at 52 umol / kg administered subcutaneously; format: functional
Rattus norvegicus [3] = assay: Evaluated for 5-HTP increase in limbic region of nonpretreated rat at 52 umol / kg administered subcutaneously; format: functional, Limbic system
Rattus norvegicus [4] = assay: Evaluated for DOPA accumulation in limbic region of nonpretreated rat at 52 umol / kg administered subcutaneously; format: functional, Limbic system
Rattus norvegicus [5] = assay: Evaluated for rat locomotor activity in nonhabituated rats at 200 umol / kg administered subcutaneously; format: functional
D(2) dopamine receptor [6] = molecular target: T1, D(2) dopamine receptor (Rattus norvegicus, UniProt P61169); assay: Evaluated for binding towards Dopamine receptor D2 using [3H]N-0437 as radioligand from rat striatal membrane
Rattus norvegicus [7] = assay: Evaluated for DOPA accumulation in striatum of nonpretreated rat at 25 umol / kg administered subcutaneously; format: functional
[8] = molecular target: T2, Sigma non-opioid intracellular receptor 1 (Rattus norvegicus, UniProt Q9R0C9); assay: Binding affinity for sigma receptor using 2 nM of [3H]DTG as radioligand, in membranes from brain minus cerebellum; format: tissue-based
D(2) dopamine receptor [9] = molecular target: T1, D(2) dopamine receptor; assay: Binding towards Dopamine receptor D2 using [3H]spiperone from rat striatal membrane
Rattus norvegicus [10] = assay: Evaluated for DOPA accumulation in limbic region of nonpretreated rat at 25 umol / kg administered subcutaneously; format: functional, Limbic system
Rattus norvegicus [11] = assay: Evaluated for DOPA accumulation in striatum of reserpine pretreated rat at 100 umol / kg administered intraperitoneally; format: functional
Rattus norvegicus [12] = assay: Evaluated for DOPA accumulation in limbic region of nonpretreated rat at 200 umol / kg administered subcutaneously; format: functional, Limbic system
Rattus norvegicus [13] = assay: Evaluated for 5-HTP increase in hemisphere region of nonpretreated rat at 200 umol / kg administered subcutaneously; format: functional
D(3) dopamine receptor = D(3) dopamine receptor (Homo sapiens, UniProt P35462)
Description: Binding towards Dopamine receptor D3 expressed in CHO-K1 cells using [3H]spiperone

D(2) dopamine receptor [14] = molecular target: T3, D(2) dopamine receptor (Bos taurus, UniProt P20288); assay: Evaluated for binding towards Dopamine receptor D2 using [3H]-spiperone as radioligand, in cloned mammalian receptors expressed in CHO-K1 cells; format: cell-based
Rattus norvegicus [15] = assay: Evaluated for DOPA accumulation in striatum of nonpretreated rat at 200 umol / kg administered subcutaneously; format: functional
D(2) dopamine receptor [16] = molecular target: T3, D(2) dopamine receptor; assay: Binding towards Dopamine receptor D2 expressed in CHO-K1 cells using [3H]U-86170; format: cell-based
Rattus norvegicus [17] = species: Rattus norvegicus; assay: Rat locomotor activity in reserpine pretreated rats and accumulated counts / 30 min is calculated; format: functional
Rattus norvegicus [18] = assay: Evaluated for DOPA accumulation in limbic region of reserpine pretreated rat at 52 umol / kg administered subcutaneously; format: functional, Limbic system
D(4) dopamine receptor [19] = molecular target: T4, D(4) dopamine receptor (Homo sapiens, UniProt P21917)
T4 sequence (P21917 whole entry): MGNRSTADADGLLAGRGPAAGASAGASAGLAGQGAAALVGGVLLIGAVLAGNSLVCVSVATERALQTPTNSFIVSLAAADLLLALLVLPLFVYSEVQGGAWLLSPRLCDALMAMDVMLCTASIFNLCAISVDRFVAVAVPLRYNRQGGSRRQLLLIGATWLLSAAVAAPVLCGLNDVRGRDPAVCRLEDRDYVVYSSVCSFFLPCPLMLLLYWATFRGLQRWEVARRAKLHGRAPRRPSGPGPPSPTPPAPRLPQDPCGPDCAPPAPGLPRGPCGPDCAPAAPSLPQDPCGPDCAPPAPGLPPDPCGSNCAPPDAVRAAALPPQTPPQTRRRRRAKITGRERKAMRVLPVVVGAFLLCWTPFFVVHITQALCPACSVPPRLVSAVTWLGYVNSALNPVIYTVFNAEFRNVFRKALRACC
Description: (§1) Binding towards dopamine receptor D4 expressed in CHO-K1 cells using [3H]spiperone

Rattus norvegicus [20] = species: Rattus norvegicus; assay: Evaluated for rat locomotor activity in nonhabituated rats at 25 umol / kg; format: functional
Rattus norvegicus [21] = species: Rattus norvegicus; assay: Evaluated for rat locomotor activity in nonpretreated habituated rats at 100 umol / kg; format: functional; design: unit not given beside the values
Rattus norvegicus [22] = assay: Evaluated for 5-HTP increase in limbic region of nonpretreated rat at 200 umol / kg administered subcutaneously; format: functional, Limbic system
Rattus norvegicus [23] = assay: Evaluated for DOPA accumulation in limbic region of reserpine pretreated rat at 100 umol / kg administered intraperitoneally; format: functional, Limbic system
Rattus norvegicus [24] = assay: Evaluated in rat striatum for the effect on dopamine release and metabolism in brain dialysis model after administration of 50 umol / kg subcutaneously; format: functional; design: unit not given beside the values
Rattus norvegicus [25] = assay: Evaluated in rat striatum for the effect on DOPAC release and metabolism in brain dialysis model after administration of 50 umol / kg subcutaneously; format: functional; design: unit not given beside the values
Rattus norvegicus [26] = assay: Evaluated for rat locomotor activity in nonhabituated rats at 213 umol / kg administered subcutaneously; format: functional
[27] = molecular target: T2, Sigma non-opioid intracellular receptor 1; assay: Binding effinity for sigma receptor using 2 nM of [3H]DTG as radioligand, in membranes from brain minus cerebellum; format: tissue-based
Rattus norvegicus [28] = species: Rattus norvegicus; assay: Evaluated for rat locomotor activity in nonpretreated habituated rats at 25 umol / kg; format: functional
D(4) dopamine receptor [29] = molecular target: T4, D(4) dopamine receptor; details: cho-k1
Description: as §1

Rattus norvegicus [30] = assay: Evaluated for DOPA accumulation in limbic region of nonpretreated rat at 100 umol / kg administered subcutaneously; format: functional, Limbic system
Rattus norvegicus [31] = assay: Evaluated in rat accumbens for the effect on dopamine release and metabolism in brain dialysis model after administration of 50 umol / kg subcutaneously; format: functional
Rattus norvegicus [32] = assay: Evaluated for DOPA accumulation in striatum of nonpretreated rat at 100 umol / kg administered subcutaneously; format: functional
Rattus norvegicus [33] = assay: Evaluated for 5-HTP increase in limbic region of nonpretreated rat at 100 umol / kg administered subcutaneously; format: functional, Limbic system
Rattus norvegicus [34] = assay: Evaluated for 5-HTP increase in hemisphere region of nonpretreated rat at 27 umol / kg administered subcutaneously; format: functional
Rattus norvegicus [35] = assay: Evaluated for DOPA accumulation in limbic region of reserpine pretreated rat at 27 umol / kg administered subcutaneously; format: functional, Limbic system
Rattus norvegicus [36] = assay: Evaluated in rat accumbens for the effect on DOPAC release and metabolism in brain dialysis model after administration of 50 umol / kg subcutaneously; format: functional
Rattus norvegicus [37] = assay: Evaluated for 5-HTP increase in limbic region of nonpretreated rat at 27 umol / kg administered subcutaneously; format: functional, Limbic system

T1 sequence (P61169 whole entry): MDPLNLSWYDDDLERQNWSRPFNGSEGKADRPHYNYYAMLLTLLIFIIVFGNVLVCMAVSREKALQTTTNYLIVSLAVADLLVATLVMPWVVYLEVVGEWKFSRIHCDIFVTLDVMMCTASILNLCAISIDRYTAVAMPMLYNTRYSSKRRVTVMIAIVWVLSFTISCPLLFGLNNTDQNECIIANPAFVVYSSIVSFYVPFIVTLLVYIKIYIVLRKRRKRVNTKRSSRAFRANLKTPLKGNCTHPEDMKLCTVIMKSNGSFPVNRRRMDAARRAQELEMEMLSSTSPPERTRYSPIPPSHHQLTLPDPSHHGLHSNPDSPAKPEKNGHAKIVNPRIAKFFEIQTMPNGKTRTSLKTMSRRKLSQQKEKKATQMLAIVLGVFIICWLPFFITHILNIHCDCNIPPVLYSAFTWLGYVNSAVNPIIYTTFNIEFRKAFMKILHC
T3 sequence (P20288 whole entry): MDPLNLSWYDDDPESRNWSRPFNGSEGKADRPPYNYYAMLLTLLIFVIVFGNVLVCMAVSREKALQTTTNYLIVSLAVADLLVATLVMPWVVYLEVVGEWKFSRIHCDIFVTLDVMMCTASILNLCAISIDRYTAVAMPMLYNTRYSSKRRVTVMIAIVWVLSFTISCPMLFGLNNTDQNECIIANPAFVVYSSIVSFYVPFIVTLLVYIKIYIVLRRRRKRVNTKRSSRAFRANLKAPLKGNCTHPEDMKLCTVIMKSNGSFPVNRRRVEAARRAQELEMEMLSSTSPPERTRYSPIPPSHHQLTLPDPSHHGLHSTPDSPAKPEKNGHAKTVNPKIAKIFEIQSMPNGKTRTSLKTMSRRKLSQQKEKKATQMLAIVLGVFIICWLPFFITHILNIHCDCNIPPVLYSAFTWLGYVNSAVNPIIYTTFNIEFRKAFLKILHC
T2 sequence (Q9R0C9 whole entry): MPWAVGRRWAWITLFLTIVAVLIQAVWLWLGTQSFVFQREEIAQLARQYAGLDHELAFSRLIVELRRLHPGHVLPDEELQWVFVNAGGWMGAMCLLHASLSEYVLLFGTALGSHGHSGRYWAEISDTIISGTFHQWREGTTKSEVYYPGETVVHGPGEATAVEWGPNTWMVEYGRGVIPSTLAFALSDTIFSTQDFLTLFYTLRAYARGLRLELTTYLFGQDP
Sequence of D(3) dopamine receptor (P35462 whole entry): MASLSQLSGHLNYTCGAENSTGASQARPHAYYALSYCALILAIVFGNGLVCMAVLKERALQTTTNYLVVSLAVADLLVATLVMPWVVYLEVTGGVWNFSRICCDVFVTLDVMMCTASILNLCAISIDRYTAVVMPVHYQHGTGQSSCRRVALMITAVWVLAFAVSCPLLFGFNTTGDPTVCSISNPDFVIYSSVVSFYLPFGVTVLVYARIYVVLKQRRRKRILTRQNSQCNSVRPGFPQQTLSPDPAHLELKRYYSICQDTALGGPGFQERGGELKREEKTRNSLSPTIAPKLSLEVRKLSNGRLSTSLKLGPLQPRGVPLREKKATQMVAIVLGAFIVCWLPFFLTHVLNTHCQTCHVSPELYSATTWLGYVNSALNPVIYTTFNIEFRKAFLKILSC

CCCN1CCCC(c2cccc(C#N)c2)C1 (racemic)
Activity (Rattus norvegicus [1]): 103
Activity (Rattus norvegicus [2]): 281
Activity (Rattus norvegicus [3]): 99
Activity (Rattus norvegicus [4]): 198

CCCN1CCCC(c2cccc(C#N)c2)C1 (single isomer, unassigned; (+))
Activity (Rattus norvegicus [5]): 118
Ki (D(2) dopamine receptor [6]): 4900 nM
Activity (Rattus norvegicus [7]): 84
IC50 [8]: 520 nM
Ki (D(2) dopamine receptor [9]): 12600 nM
Activity (Rattus norvegicus [10]): 109
Activity (Rattus norvegicus [11]): 81
Activity (Rattus norvegicus [12]): 94
Activity (Rattus norvegicus [13]): 94
Ki (D(3) dopamine receptor): > 1420 nM
Ki (D(2) dopamine receptor [14]): > 2000 nM
Activity (Rattus norvegicus [15]): 78
Ki (D(2) dopamine receptor [16]): 1720 nM
Activity (Rattus norvegicus [17]): 6
Activity (Rattus norvegicus [18]): 93
Ki (D(4) dopamine receptor [19]): > 933 nM
Activity (Rattus norvegicus [20]): 104
Activity (Rattus norvegicus [21]): 559
Activity (Rattus norvegicus [22]): 71

CCCN1CCCC(c2cccc(O)c2)C1 (single isomer, unassigned; (+))
Activity (Rattus norvegicus [23]): 18
Activity (Rattus norvegicus [7]): 43
Activity (Rattus norvegicus [10]): 37
Activity (Rattus norvegicus [24]): 28
Ki (D(2) dopamine receptor [14]): 776 nM
Ki (D(2) dopamine receptor [16]): 32 nM
Activity (Rattus norvegicus [25]): 42
Activity (Rattus norvegicus [17]): 78
Ki (D(4) dopamine receptor [19]): > 1000 nM
Activity (Rattus norvegicus [26]): 230
Activity (Rattus norvegicus [20]): 75

CCCN1CCCC(c2cccc(C#N)c2)C1 (single isomer, unassigned; (-))
IC50 [27]: 2200 nM
Activity (Rattus norvegicus [28]): 418
Ki (D(4) dopamine receptor [29]): > 933 nM
Ki (D(2) dopamine receptor [6]): 396 nM
Activity (Rattus norvegicus [30]): 219
Activity (Rattus norvegicus [31]): 294
Activity (Rattus norvegicus [7]): 285
Ki (D(2) dopamine receptor [9]): 1140 nM
Activity (Rattus norvegicus [10]): 204
Activity (Rattus norvegicus [11]): 105
Activity (Rattus norvegicus [24]): 295
Ki (D(3) dopamine receptor): 249 nM
Ki (D(2) dopamine receptor [14]): 889 nM
Ki (D(2) dopamine receptor [16]): 119 nM
Activity (Rattus norvegicus [25]): 299
Activity (Rattus norvegicus [32]): 268
Activity (Rattus norvegicus [17]): 12
Activity (Rattus norvegicus [18]): 136
Activity (Rattus norvegicus [33]): 148
Activity (Rattus norvegicus [21]): 719

CCCN1CCCC(c2cccc(O)c2)C1 (single isomer, unassigned; (-))
Activity (Rattus norvegicus [34]): 87
Activity (Rattus norvegicus [31]): 98
Activity (Rattus norvegicus [7]): 147
Activity (Rattus norvegicus [35]): 30
Activity (Rattus norvegicus [10]): 91
Activity (Rattus norvegicus [24]): 700
Ki (D(2) dopamine receptor [14]): 137 nM
Ki (D(2) dopamine receptor [16]): 8.5 nM
Activity (Rattus norvegicus [36]): 115
Activity (Rattus norvegicus [25]): 70
Activity (Rattus norvegicus [17]): 12
Ki (D(4) dopamine receptor [19]): 130 nM
Activity (Rattus norvegicus [37]): 89
Activity (Rattus norvegicus [26]): 40
Activity (Rattus norvegicus [20]): 74
Activity (Rattus norvegicus [21]): 208

— ChEMBL document CHEMBL1126862, “Substituted 3-phenylpiperidines: new centrally acting dopamine autoreceptor antagonists” (J Med Chem, 1993)
